Results on one compound are retold here after patent US7897591B2, “Method of treating fatty liver disease” (priority 2005, dated 2011).

This assay deals with C57BL/6 mice. Briefly: MR spectroscopy of percentage liver fat content in HCD mouse model. The assay is classed as in vivo. As to conditions: HCD+MAR mice, 100 mg/kg twice daily orogastric gavage, 19 days; mean±SEM; P<0.05 vs HCD-only (24.1±1.7%). As to the method: Experiments were performed on 5-6 week-old C57BL/6 mice (Jackson Laboratories, Bar Harbor, Me.). The animals, in groups of five, were housed in a barrier room and were acclimated to their environment for at least 72 hours prior to the initiation of each experiment. Animal protocols complied with the NIH Animal Research Advisory Committee guidelines and were approved by the Children's Hospital Boston Animal Care and Use Committee. Control animals (n=5) received normal chow and water ad libitum. All animals in the experimental groups were fed a fat-free, high carbohydrate liquid diet (HCD) ad libitum placed in one bottle per cage as previously described (3, 62). No additional sources of nutrition or hydration were provided. […] Three 2 mm thick slices were imaged for each sample and the saturation recovery curves were generated from signal intensities measured in identically sized regions of interest within a given slice. […] Spectra were obtained following Fourier transformation and phasing, and percent fat content was determined relative to water by numerical integration of the areas under the lipid and water peaks by an independent blinded reviewer.

SMILES strings stand for the structures.

`CNC(=O)[C@@H](NC(=O)[C@H](CC(C)C)[C@H](O)C(=O)NO)C(C)(C)C` [Marimastat]: the “liver fat content by MR spectroscopy” value turned out to be 8.1±1.2%.
